According to US20230295199A1, “PHOSPHOLIPID” (NIPPON FINE CHEMICAL CO., LTD., priority 2021, published 2023):

Legend:
[1] = Particle size and polydispersity index of lipid particles (Zetasizer Nano ZS); assay type: physicochemical; settings: siRNA lipid particles, lipid 1:DPPC:Chol 45:10:45, named phospholipid as lipid 1; diluted 50-fold with RNase-free water
Procedure: (§1) siRNA was added to 1 mM citrate buffer (pH 4.0), thereby preparing an acidic aqueous solution of siRNA (25° C., siRNA concentration: 71.4 nM). Separately, lipids (lipid 1: DOP-DEDA, DOP-PPZ, or DOR-MPPZ; lipid 2: dipalmitoyl phosphatidylcholine (DPPC); and lipid 3: cholesterol (Chol)) at a molar ratio of 45:10:45 (lipid 1:lipid 2:lipid 3) were added to ethanol, thereby preparing a phospholipid alcohol solution (25° C., lipid concentration: 2.5 mM). A 5-fold volume of the acidic aqueous solution of siRNA was added to the phospholipid alcohol solution (siRNA/lipid molar ratio=1/7000), and a microchannel (KeyChem-Basic, YMC Co., Ltd.) was used to obtain lipid particles. Finally, ethanol was removed by dialysis.
The lipid particles were diluted 50-fold with RNase-free water, and then the particle size and polydispersity index (PDI) were measured with a Zetasizer Nano ZS (Malvern). The lipid. particles were also diluted 50-fold with a buffer (pH=4.0, 5.0, 6.0, or 7.0), and the ζ-potential was then measured.

[2] = siRNA encapsulation efficiency of lipid particles (RiboGreen reagent); assay type: physicochemical; settings: lipid 1:DPPC:Chol 45:10:45, siRNA/lipid molar ratio 1/7000, named phospholipid as lipid 1
Procedure: as §1
Further, the encapsulation efficiency of RNA was measured in the following manner. The measurement was performed using an RNA assay reagent (RiboGreen reagent, Thermo Fisher Scientific), specifically as described below. […] The plate was shaken for 5 minutes, and the fluorescence intensity in each well was measured. The encapsulation efficiency of siRNA in the lipid particles was calculated using the following equation: the encapsulation efficiency (%)=(the fluorescence intensity of total siRNA−the fluorescence intensity of free siRNA)/(the fluorescence intensity of total siRNA), with the measured fluorescence intensity.

Compound | Particle size (nm) [1] [nm] | Pdl [1] | siRNA encapsulation efficiency (%)* [2] [%]
Dioleoylphosphate-Diethylenediamine Conjugate [DOP-DEDA, reference compound] | 100 ± 3 | 0.11 ± 0.06 | 98 ± 7
CCCCCCCC/C=C\CCCCCCCC(=O)OC[C@H](COP(=O)(O)OCCN1CCNCC1)OC(=O)CCCCCCC/C=C\CCCCCCCC [DOP-PPZ, 1,2-di-(9Z-octadecenoyl)-sn-glycero-3-phosphoethylpiperazine] | 79 ± 3 | 0.35 ± 0.01 | 94 ± 4
